From patent US5393761A, “3-arylindole compounds” (H. Lundbeck A/S, priority 1990, dated 1995)
Structures can show the parent of a compound that is named as a salt.

Tests used:
[1] = literature (Ceulemans et al. 1985); cited from earlier work
[2] = literature (Janssen 1988); cited from earlier work
[3] = literature (Colpart et al. 1985); cited from earlier work
[4] = literature (Klieser, Strauss 1988); cited from earlier work
[5] = literature (Bersani et al. 1990); cited from earlier work
[6] = target: T1, serotonin S2 (5-HT2) receptors in rat cortex (Rattus norvegicus, UniProt P14842); experiment: Inhibition of ^3H-ketanserin binding to serotonin S2 (5-HT2) receptors in rat cortex in vitro; conditions: 0.5 nM ^3H-ketanserin, rat cortex membranes, 37° C., 30 min
T1 construct: Serotonin S2 (5-HT2) receptors in membranes from rat; from tissue; host or cells: cerebral cortex membranes of male Wistar rats (printed 'conical tissue', a misprint for cortical)
Method: Method in Hyttel, Pharmacology & Toxicology, 61, 126-129, 1987.
Male Wistar (Mol:Wist) rats (125-250 g) are sacrificed and conical tissue is dissected and weighed. The tissue is homogenized (Ultra Turrax, 10 sec.) in 10 ml of ice-cold 50 mM tris buffer pH 7.7 (at 25° C.). The centrifuge glassware used in this step has been rinsed by sonication for 10 min. in ethanol. The homogenate is centrifuged twice at 20,000 g for 10 min. at 4° C. with rehomogenization of the pellet in 10 ml ice-cold buffer. The final pellet is homogenized in 500 vol (w/v)ice-cold buffer.
Incubation tubes kept on ice in triplicate receive 100 μl Of drug solution in water (or water for total binding) and 2000 μl of tissue suspension (final tissue content corresponds to 4 mg original tissue). […] After incubation for 30 min. the samples are filtered under vacuum (0-50 mBar) through Whatman GF/F filters (25 mm). The tubes are rinsed with 5 ml ice-cold buffer which are then poured on the filters. Thereafter, the filters are washed with 2×5 ml of buffer. The filters are placed in counting vials and 4 ml of appropriate scintillation fluid (e.g. Picofluor ™15) are added. After shaking for 1 h and storage 2 hrs in the dark the content of radioactivity is determined by liquid scintillation counting. Specific binding is obtained by subtracting the nonspecific binding in the presence of 1 μM mianserin. For determination of the inhibition of binding five concentrations of drugs covering 3 decades are used.
The IC50 value is determined as the concentration at which the binding is 50% of the total binding in control samples minus the nonspecific binding in the presence of 1 μM mianserin.

[7] = target: dopamine D-2 receptors in rat corpus striatum (Rattus norvegicus, UniProt P61169); experiment: Inhibition of ^3H-spiperone (spiroperidol) binding to dopamine D-2 receptors in rat corpus striatum in vitro; conditions: 0.5 nM ^3H-spiperone, rat striatum membranes, 37° C., 10 min
Method: By this method the inhibition by drugs of the binding of ^3 H-spiperone (=^3 H-spiroperidol) (0.5 nM) to dopamine D-2 receptors in membranes from rat corpus striatum is determined in vitro. Method and results in Hyttel & Larsen, J. Neurochem, 44, 1615-1622, 1985).
Male Wistar (Mol:Wistar) rats (125-250 g) are sacrificed and striatal tissue is dissected and weighed. The tissue is homogenized (Ultra Turrax, 10 sec.) in 10 ml of ice-cold 50 mM K-phosphate buffer pH 7.4 (at 25° C.). The homogenate is centrifuged twice at 20,000 g for 10 min. at 4° C. with rehomogenization of the pellet in 10 ml ice-cold buffer. The final pellet is homogenized in 1300 vol (w/v) ice-cold buffer.
Incubation tubes kept on ice in triplicate receive 100 μl of drug solution in water (or water for total binding) and 4000 μl Of tissue suspension (final tissue content corresponds to 3.08 mg original tissue). The binding experimental is initiated by addition of 100 μl of ^3 H-spiperone (final concentration 0.5 nM) and by placing the tubes in a 37° C. water bath. After incubation for 10 min. the samples are filtered under vacuum (0-50 mBar) through Whatman GF/F filters (25 mm). The tubes are rinsed with 5 ml ice-cold buffer which are then poured on the filters. Thereafter, the filters are washed with 2×5 ml of buffer. The filters are placed in counting vials and 4 ml of appropriate scintillation fluid (e.g. Picofluor ™15) are added. After shaking for 1 h and storage 2 hrs in the dark the content of radioactivity is determined by liquid scintillation counting. Specific binding is obtained by subtracting the nonspecific binding in the presence of 10 μM of 6,7-ADTN.
For determination of the inhibition of binding five concentrations of drugs covering 3 decades are used.
The measured cpm are plotted against drug concentration on semilogarithmic paper and the best fitting S-shaped curve is drawn. […] England, specific activity 15-25 Ci/mmol.

T1 sequence (P14842 whole entry): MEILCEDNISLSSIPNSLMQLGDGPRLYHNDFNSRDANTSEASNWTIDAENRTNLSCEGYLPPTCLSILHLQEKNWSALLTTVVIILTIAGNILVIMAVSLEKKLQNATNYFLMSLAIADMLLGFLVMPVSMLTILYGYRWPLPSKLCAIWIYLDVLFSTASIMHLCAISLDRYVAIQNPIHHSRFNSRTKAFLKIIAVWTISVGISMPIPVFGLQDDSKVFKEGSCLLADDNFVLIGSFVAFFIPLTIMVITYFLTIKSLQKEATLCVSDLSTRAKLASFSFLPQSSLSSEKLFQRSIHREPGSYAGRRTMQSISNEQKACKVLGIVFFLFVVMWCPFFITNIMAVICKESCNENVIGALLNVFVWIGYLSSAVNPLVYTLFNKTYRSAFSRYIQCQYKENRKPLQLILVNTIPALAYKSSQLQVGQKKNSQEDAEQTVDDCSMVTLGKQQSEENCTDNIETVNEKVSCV
Chain of dopamine D-2 receptors in rat corpus striatum (P61169 whole entry): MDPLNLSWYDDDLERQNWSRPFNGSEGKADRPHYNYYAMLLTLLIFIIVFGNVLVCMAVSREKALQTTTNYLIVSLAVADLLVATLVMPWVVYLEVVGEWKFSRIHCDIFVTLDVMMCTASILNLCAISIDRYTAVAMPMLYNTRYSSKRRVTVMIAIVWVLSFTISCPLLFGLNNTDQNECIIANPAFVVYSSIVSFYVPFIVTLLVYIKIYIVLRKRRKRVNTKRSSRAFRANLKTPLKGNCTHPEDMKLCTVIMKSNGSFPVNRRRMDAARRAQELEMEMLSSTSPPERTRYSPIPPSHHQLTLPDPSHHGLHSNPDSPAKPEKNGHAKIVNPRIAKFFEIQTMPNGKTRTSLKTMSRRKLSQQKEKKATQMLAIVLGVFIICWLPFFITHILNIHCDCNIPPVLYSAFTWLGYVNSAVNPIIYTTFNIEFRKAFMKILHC

Row | SMILES | IC50 [6] | IC50 [7] | further results
1 | Cc1nc2n(c(=O)c1CCN1CCC(C(=O)c3ccc(F)cc3)CC1)CCS2 [setoperone] |  |  | improvement of negative symptoms of schizophrenia (in words) [1]: blockade of 5-HT2 receptors may be related to improvement of negative symptoms of schizophrenia
2 | Cc1nc2sccn2c(=O)c1CCN1CCC(=C(c2ccc(F)cc2)c2ccc(F)cc2)CC1 [Ritanserin] |  |  | quality of sleep (in words) [2]: shown to improve the quality of sleep; anxiolytic-like effect (in words) [3]: exert effects in an animal test reminiscent of anxiolytic drug activity; antidepressant effect and depressive symptoms of schizophrenia (in words) [4]: shown to be an antidepressant and to improve depressive symptoms of schizophrenia; relief of neuroleptic-induced parkinsonism (in words) [5]: found to relieve neuroleptic-induced parkinsonism
3 | Cc1c(-c2ccccc2)c2ccccc2n1C1CCN(CCN2CCNC2=O)CC1 [Compound 7c, 1-[1-[2-(Imidazolidin-2-on-1-yl)ethyl]-4-piperidyl]-2-methyl-3-phenyl-1H-indole] | 7.8 nM | 5300 nM | 
4 | Cc1ccc2c(c1)c(-c1ccc(F)cc1)cn2C1CCN(CCN2CCN(C)C2=O)CC1 [Compound 4i, 3-(4-Fluorophenyl)-5-methyl-1-[1-[2-(3-methylimidazolidin-2-on-1-yl)ethyl]-4-piperidyl]-1H-indole, fumarate] | 1.4 nM | 680 nM | 
5 | Cc1ccc2c(c1)c(-c1ccc(F)cc1)cn2C1CCN(C(C)C)CC1 [Compound 4s, 3-(4-Fluorophenyl)-5-methyl-1-[1-(2-propyl)-4-piperidyl]-lH-indole, maleate] | 12 nM | 330 nM | 
6 | Cc1ccc2c(c1)c(-c1ccc(F)cc1)cn2C1=CCN(C)CC1 [Compound 6d, 3-(4-Fluorophenyl)-5-methyl-1-(1-methyl-1,2,3,6-tetrahydropyridin-4-yl)-1H-indole, maleate] | 4.4 nM | 32 nM | 
